5 compounds from article PMC7948982, “Dissecting the low catalytic capability of flavin-dependent halogenases” (The Journal of Biological Chemistry, 2020) can be followed below.

The term Kd denotes the constant that tells how readily two partners part at equilibrium. Low values mean a tighter complex, high ones a looser complex.

Test [1] has as its target T1, Thal (tryptophan 6-halogenase) (Streptomyces albogriseolus, UniProt A1E280).
T1 construct: recombinant, E. coli BL21(DE3), pET28b; tag residues seen in 7CU1; two protomers per asymmetric unit; GFP11 C-terminal tag only in the mutant library screen
The test is described as follows: X-ray crystal structure, […] Å. It is filed as binding. The conditions noted are these: apo crystals soaked with FAD and Trp for 7 days, 25 °C.

Test [2] has as its target T2, Thal (tryptophan 6-halogenase) (Streptomyces albogriseolus, UniProt A1E280, K79T).
T2 construct: recombinant, E. coli BL21(DE3), pET28b; tag residues seen in 7CU1; two protomers per asymmetric unit; GFP11 C-terminal tag only in the mutant library screen
Description: stopped-flow absorbance at […] and […] nm, C4a-hydroperoxyflavin formation. It is filed as biochemical. The conditions noted are these: 30 μM enzyme, 15 μM FADH-, air-saturated buffer; 20 mM potassium phosphate pH 7.2, 25 °C.

In test [3] the target is T1, Thal (tryptophan 6-halogenase). The test is described as follows: X-ray crystal structure, […] Å. It is filed as binding. The conditions noted are these: crystal soak with FAD, tryptophan and dithionite; flavin site.
For test [4], the target named is T3, PrnA (tryptophan 7-halogenase) (Pseudomonas fluorescens, UniProt P95480).
T3 construct: construct and source details not given
Description: stopped-flow fluorescence, C4a-hydroxyflavin formation. Format: biochemical. The conditions noted are these: with C4a-hydroperoxyflavin enzyme; pH 7.2, 25 °C.

Test [5] has as its target T4, PyrH (tryptophan 5-halogenase) (Streptomyces rugosporus, UniProt A4D0H5).
T4 construct: construct and source details not given
The test is described as above. It is filed as biochemical. The conditions noted are these: with C4a-hydroperoxyflavin enzyme; pH 7.2, 25 °C.

The target in test [6] is T1, Thal (tryptophan 6-halogenase). The test is described as follows: stopped-flow fluorescence, kobs of C4a-hydroxyflavin formation versus halide. It is filed as biochemical. The conditions noted are these: binding to the C4a-hydroperoxyflavin form of the enzyme; two-step model; 20 mM potassium phosphate pH 7.2, 25 °C. From the text:
stopped-flow fluorescence, kobs of C4a-hydroxyflavin formation versus halide on Thal (tryptophan 6-halogenase)

The target is the same in test [7]. The test is described as follows: X-ray crystal structure, […] Å. Format: binding. Particulars: apo crystals soaked, 2 days, 25 °C; tryptophan site.
Test [8] concerns the target T5, (Pseudomonas fluorescens, UniProt P95480).
T5 construct: gene prnA; construct and source details not given
The test is described as follows: multiple turnover halogenation. It is filed as biochemical.

T1 sequence (A1E280 whole entry): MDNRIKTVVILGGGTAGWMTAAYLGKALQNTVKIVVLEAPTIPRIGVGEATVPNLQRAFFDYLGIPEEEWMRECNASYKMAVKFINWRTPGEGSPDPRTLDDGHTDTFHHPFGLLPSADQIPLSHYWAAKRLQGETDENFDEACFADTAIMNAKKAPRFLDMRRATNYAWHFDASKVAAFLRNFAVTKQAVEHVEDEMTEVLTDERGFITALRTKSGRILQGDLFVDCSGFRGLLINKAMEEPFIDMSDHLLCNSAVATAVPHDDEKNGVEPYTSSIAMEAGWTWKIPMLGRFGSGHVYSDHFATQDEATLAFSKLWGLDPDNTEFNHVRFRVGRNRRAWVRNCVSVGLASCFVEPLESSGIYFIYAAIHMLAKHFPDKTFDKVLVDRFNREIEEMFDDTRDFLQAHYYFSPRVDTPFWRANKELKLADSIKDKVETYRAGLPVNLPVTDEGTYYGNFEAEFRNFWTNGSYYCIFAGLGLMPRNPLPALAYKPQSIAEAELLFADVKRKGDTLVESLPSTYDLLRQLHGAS
T3 sequence (P95480 whole entry): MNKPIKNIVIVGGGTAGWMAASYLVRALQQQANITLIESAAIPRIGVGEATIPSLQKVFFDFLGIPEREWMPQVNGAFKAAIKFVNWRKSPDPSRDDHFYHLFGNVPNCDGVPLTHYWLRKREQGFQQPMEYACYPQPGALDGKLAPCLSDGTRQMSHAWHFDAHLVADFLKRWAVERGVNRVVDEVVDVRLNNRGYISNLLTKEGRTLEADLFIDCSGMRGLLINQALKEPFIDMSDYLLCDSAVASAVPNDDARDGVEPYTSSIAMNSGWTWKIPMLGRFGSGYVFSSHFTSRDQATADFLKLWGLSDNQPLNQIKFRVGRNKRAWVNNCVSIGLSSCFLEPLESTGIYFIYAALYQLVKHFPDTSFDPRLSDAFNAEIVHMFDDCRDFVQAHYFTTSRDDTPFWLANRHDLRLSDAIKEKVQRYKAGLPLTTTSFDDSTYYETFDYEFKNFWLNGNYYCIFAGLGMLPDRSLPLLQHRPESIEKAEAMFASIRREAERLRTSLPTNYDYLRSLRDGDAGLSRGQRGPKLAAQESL
T5 sequence (P95480 whole entry): as above
T4 sequence (A4D0H5 whole entry): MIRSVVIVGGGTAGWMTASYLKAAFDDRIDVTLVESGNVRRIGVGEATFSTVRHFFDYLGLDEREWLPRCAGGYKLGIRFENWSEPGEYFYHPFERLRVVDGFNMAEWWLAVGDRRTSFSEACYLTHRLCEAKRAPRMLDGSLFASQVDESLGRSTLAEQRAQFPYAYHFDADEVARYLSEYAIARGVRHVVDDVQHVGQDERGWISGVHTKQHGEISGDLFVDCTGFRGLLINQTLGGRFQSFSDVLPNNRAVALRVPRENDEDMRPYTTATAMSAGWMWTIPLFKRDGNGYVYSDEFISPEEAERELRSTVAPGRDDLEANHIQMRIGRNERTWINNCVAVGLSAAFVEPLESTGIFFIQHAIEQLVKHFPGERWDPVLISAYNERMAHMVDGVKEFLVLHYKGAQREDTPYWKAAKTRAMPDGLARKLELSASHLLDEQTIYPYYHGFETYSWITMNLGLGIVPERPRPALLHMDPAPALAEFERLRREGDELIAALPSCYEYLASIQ
T2 sequence (A1E280 whole entry K79T): as the sequence (A1E280 whole entry) above, with K79T counted along it

Consider `Nc1ncnc2c1ncn2[C@@H]1O[C@H](COP(=O)(O)O)[C@@H](O)[C@H]1O` [AMP], for which, in test [1] (flavin site crystal, AMP not added to the soak), the “X-ray crystal structure, 1.91 Å” value was “Thal:FAD:AMP (PDB code 7CU1) were solved with two protomers per asymmetric unit (asu)”. As for `Cc1cc2c(cc1C)N(C[C@H](O)[C@H](O)[C@H](O)COP(=O)(O)OP(=O)(O)OC[C@H]1O[C@@H](n3cnc4c(N)ncnc43)[C@H](O)[C@@H]1O)c1[nH]c(=O)[nH]c(=O)c1N2` [FADH^−], the “stopped-flow absorbance at 380 and 450 nm, C4a-hydroperoxyflavin formation” value in test [2] is given as “These data indicate that Lys79Thr could still form C4aOOH-FAD”. Also, the “X-ray crystal structure, 2.40 Å” value in test [3] is on record as “Clear electron density for FADH^− was observed in both protomers”. In the case of `Cc1cc2nc3c(=O)[nH]c(=O)nc-3n(C[C@H](O)[C@H](O)[C@H](O)COP(=O)(O)OP(=O)(O)OC[C@H]3O[C@@H](n4cnc5c(N)ncnc54)[C@H](O)[C@@H]3O)c2cc1C` [FAD], the “X-ray crystal structure, 1.91 Å” value in test [1] (flavin site) is recorded as “Thal:FAD:AMP (PDB code 7CU1) were solved with two protomers per asymmetric unit (asu)”.

Consider `I` [I^−], for which the “stopped-flow fluorescence, C4a-hydroxyflavin formation” value is “PrnA and PyrH could also react with I^− to form HOI and C4aOH-FAD” in test [4]; “PrnA and PyrH could also react with I^− to form HOI and C4aOH-FAD” in test [5]. Binding in test [6] was characterised by a dissociation constant (Kd) of 64 ± 21 µM.

For the compound `N[C@@H](Cc1c[nH]c2ccccc12)C(=O)O` [tryptophan], the “X-ray crystal structure, 1.95 Å” value in test [7] is “we solved the structure of the Thal:TRP complex (PBD code 7CU0”. Further, the multiple turnover halogenation result in test [8] was “multiple turnover reactions of Thal were carried out and compared with the reactions of PrnA”.
